What was measured:
AAK1 [1] = target: T1, AAK1 (Homo sapiens, UniProt Q2M2I8); test: P81 filter plate assay; type: biochemical; details: full-length human AAK1, Mu2 substrate, 33P-ATP
T1 construct: NP_055726.2
Procedure, shortened: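 Full-length human AAK1 (0.2 nM, 2×) was pre-incubated 10 min at RT with compounds (top concentration 96 μM in the dilution plate), then reacted 1 h at RT with full-length human Mu2 (0.2 μM, 2×), cold ATP (2 μM, 2×) and ³³P-ATP. Reactions were stopped with phosphoric acid and captured on P81 filters for scintillation counting.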

AAK1 [2] = target: T1, AAK1; test: HEK281 cell-based assay (CBA); details: HEK293F cells transfected with full length human AAK1 and AP2M1; phospho-mu2 Western blot; 3 hours incubation
Procedure, shortened: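 HEK293F cells co-transfected with full-length human AAK1/HA and Flag-AP2M1 (mu2), then treated in suspension with compounds (5 concentrations, 3-fold steps) in DMEM+0.5% FBS for 3 hours at 37° C. Phospho-mu2 and total mu2 (anti-Flag) assessed by Western blot.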

T1 sequence (Q2M2I8 1-863 isoform Q2M2I8-2): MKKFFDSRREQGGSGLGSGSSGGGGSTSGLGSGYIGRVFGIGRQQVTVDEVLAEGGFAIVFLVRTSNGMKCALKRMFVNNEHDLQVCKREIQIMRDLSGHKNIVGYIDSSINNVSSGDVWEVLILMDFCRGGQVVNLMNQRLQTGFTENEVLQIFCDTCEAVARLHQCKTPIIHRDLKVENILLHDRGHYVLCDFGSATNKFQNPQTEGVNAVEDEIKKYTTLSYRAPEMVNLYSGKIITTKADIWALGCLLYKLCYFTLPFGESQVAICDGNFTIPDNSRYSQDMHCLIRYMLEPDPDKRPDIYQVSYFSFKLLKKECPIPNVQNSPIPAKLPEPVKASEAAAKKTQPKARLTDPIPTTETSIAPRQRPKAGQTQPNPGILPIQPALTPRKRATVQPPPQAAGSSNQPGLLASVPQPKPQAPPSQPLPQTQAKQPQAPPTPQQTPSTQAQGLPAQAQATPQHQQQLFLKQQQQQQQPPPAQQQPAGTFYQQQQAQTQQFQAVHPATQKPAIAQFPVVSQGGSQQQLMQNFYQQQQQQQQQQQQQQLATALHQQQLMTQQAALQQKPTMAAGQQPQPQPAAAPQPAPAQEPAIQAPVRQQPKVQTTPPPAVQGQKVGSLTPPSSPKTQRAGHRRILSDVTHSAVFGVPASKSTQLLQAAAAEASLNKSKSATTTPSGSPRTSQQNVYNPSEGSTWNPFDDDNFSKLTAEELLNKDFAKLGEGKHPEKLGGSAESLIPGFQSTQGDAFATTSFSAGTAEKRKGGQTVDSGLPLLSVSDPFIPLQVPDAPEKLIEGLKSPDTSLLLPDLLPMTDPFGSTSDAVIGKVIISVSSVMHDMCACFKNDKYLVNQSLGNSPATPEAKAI

Compound | melting point | IC50 (AAK1 [1]) | IC50 (AAK1 [2])
CN(CCNc1ccn2ncc(-c3cccs3)c2n1)C(=O)OC(C)(C)C [Example 5.6.4, Methyl-[2-(3-thiophen-2-yl-pyrazolo[1,5-a]pyrimidin-5-ylamino)-ethyl]-carbamic acid tert-butyl ester] | 140 to 141 °C | – | –
COc1ncccc1-c1cnn2ccc(N3CCN(C(=O)OC(C)(C)C)CC3)nc12 [tert-butyl 4-(3-(2-methoxypyridin-3-yl)pyrazolo[1,5-a]pyrimidin-5-yl)piperazine-1-carboxylate] | – | ≤ 10 nM | ≤ 10 nM
COc1ncc(F)cc1-c1cnn2ccc(N3CCN(C(=O)OC(C)(C)C)CC3)nc12 [tert-butyl 4-(3-(5-fluoro-2-methoxypyridin-3-yl)pyrazolo[1,5-a]pyrimidin-5-yl)piperazine-1-carboxylate] | – | ≤ 10 nM | ≤ 100 nM
COc1ncccc1-c1cnn2ccc(N3CCN(C(=O)OC4CCOCC4)CC3)nc12 [tetrahydro-2H-pyran-4-yl 4-(3-(2-methoxypyridin-3-yl)pyrazolo[1,5-a]pyrimidin-5-yl)piperazine-1-carboxylate] | – | ≤ 10 nM | ≤ 100 nM

Other lines, results leading:

melting point | IC50 (AAK1 [1]) | IC50 (AAK1 [2]) | Compound
– | ≤ 10 nM | ≤ 10 nM | COc1nc(C)ccc1-c1cnn2ccc(N3CCN(C(=O)OC(C)(C)C)CC3)nc12 [tert-butyl 4-(3-(2-methoxy-6-methylpyridin-3-yl)pyrazolo[1,5-a]pyrimidin-5-yl)piperazine-1-carboxylate]
– | ≤ 10 nM | ≤ 10 nM | COc1ccc(F)cc1-c1cnn2ccc(N3CCN(C(=O)OC(C)(C)C)CC3)nc12 [tert-butyl 4-(3-(5-fluoro-2-methoxyphenyl)pyrazolo[1,5-a]pyrimidin-5-yl)piperazine-1-carboxylate]

Reference: patent US9403832B2, “Pyrazolo[1,5-a]pyrimidine-based compounds, compositions comprising them, and methods of their use” (Lexicon Pharmaceuticals, Inc., priority 2012, dated 2016)
